Measured values taken from ChEMBL document CHEMBL1129361, “Modulators of leukotriene biosynthesis and receptor activation” (J Med Chem, 1996).
Blank lines part the entries; values can stand above or below the compound they belong to. The source made the active and inactive calls. The rule behind the calls is not given here.

How the values were obtained:
Homo sapiens [1] = test: Compound was tested for inhibition of LTD4 bronchoconstriction following 4 mg/kg oral dose; active; assay type: functional, organism-based; set-up: dose 4 mg/kg; conditions: Lung
[2] = target: T1, Cysteinyl leukotriene receptor (Homo sapiens, UniProt Q9Y271+Q9NS75); test: Binding affinity against Cysteinyl leukotriene D4 receptor; assay type: protein assay
T1 sequence (Q9Y271 whole entry): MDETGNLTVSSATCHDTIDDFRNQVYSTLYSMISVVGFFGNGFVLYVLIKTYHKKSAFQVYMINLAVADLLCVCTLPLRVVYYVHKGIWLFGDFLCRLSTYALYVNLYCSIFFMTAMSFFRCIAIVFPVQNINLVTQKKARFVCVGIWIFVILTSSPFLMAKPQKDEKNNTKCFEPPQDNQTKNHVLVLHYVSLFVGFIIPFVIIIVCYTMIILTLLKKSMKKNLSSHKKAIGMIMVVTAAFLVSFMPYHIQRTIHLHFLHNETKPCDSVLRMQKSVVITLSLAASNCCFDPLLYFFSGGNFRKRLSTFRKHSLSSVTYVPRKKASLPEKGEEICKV
T1 sequence (Q9NS75 whole entry): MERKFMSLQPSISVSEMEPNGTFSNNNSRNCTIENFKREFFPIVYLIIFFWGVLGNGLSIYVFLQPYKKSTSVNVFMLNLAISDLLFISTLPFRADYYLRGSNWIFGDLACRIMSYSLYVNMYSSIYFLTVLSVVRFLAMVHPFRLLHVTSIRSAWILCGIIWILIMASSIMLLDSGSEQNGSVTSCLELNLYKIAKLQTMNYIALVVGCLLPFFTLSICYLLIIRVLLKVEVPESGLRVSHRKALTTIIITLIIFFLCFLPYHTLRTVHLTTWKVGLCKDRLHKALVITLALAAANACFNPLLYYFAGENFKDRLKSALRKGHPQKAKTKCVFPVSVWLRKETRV

Cavia porcellus [3] = species on record: Cavia porcellus; test: Compound was tested for LTD4 induced guinea pig trachea contraction; assay type: functional
Rattus norvegicus [4] = test: Compound was tested for in vivo inhibition against rat antigen bronchospasm; assay type: functional
Monkey = test: Compound was tested for in vivo inhibition against squirrel monkey antigen bronchospasm at 1 mg/kg; assay type: functional; conditions: Bronchiole, in Primates
[5] = Inhibitory activity against LT biosynthesis; […]; assay type: functional
Rattus norvegicus [6] = test: Compound was tested for in vivo inhibition against rat ionophore LTB4 formation; assay type: functional
Homo sapiens [7] = species on record: Homo sapiens; test: Compound was tested in vitro inhibitory activity against human neutrophil CD11b/CD18.; assay type: functional
Cavia porcellus [8] = species on record: Cavia porcellus; test: Compound was tested for LTD4 induced guinea pig trachea contraction.; assay type: functional
Homo sapiens [9] = test: Compound was shown 8 fold shift in LTD4 dose response curve 2 hours after 250 mg oral dose.; assay type: functional
Rattus norvegicus [10] = test: Compound was tested for in vivo inhibition on rat PMNL.; assay type: functional
Cavia porcellus [11] = test: Compound was tested for in vivo inhibition on gp antigen bronchospasm.; assay type: functional; conditions: Bronchiole
Homo sapiens [12] = species on record: Homo sapiens; test: Compound was tested for in vitro inhibition on human PMNL.; assay type: functional
[13] = phase 1 oral half life at a dose 400 mg.; assay type: ADME, organism-based; conditions: human, in vivo
Rattus norvegicus [14] = species on record: Rattus norvegicus; test: Compound was tested for in vitro inhibition against rat blood; assay type: functional
Cavia porcellus [15] = test: Compound was tested for in vivo inhibition against antigen bronchospasm; assay type: functional; conditions: Bronchiole
Cavia porcellus [16] = species on record: Cavia porcellus; test: Compound was tested for in vitro inhibition against broken guinea pig peritoneal exudate cells; assay type: functional
Mus musculus [17] = species on record: Mus musculus; test: Compound was tested for in vitro inhibition against murine macrophage; assay type: functional
Phosphodiesterase 3 = Phosphodiesterase 3 (Homo sapiens, UniProt Q14432+Q13370); test: Inhibition of Phosphodiesterase 3; assay type: protein assay
Homo sapiens [18] = species on record: Homo sapiens; test: Compound was tested for in vitro inhibition against human PMNL; assay type: functional
Phosphodiesterase 4 = Phosphodiesterase 4 (Homo sapiens, UniProt P27815+Q08499+Q07343+Q08493); test: Inhibition of Phosphodiesterase 4; assay type: protein assay
RBL-2H3 = test: Compound was tested for in vitro inhibition against 5-LO translocation in rat basophilic leukemia cells (RBL-2H3); assay type: functional, cell-based
Homo sapiens [19] = species on record: Homo sapiens; test: Compound was tested in vitro for inhibitory activity in LTB4 induced neutrophil degranulation.; assay type: functional, organism-based
Homo sapiens [20] = species on record: Homo sapiens; test: Compound was tested in vitro for inhibitory activity in LTB4 induced chemotaxis; assay type: functional, organism-based
Cavia porcellus [21] = test: Compound was tested in vivo for LTB4 induced neutrophil chemotaxis in guinea pig.(orally) at duration 21 h; assay type: functional; conditions: po
[22] = target: Leukotriene B4 receptor 1 (Homo sapiens, UniProt Q15722); test: Compound was tested for inhibitory activity against human neutrophil LTB4 receptor binding
Cavia porcellus [23] = test: compound was tested in vivo for LTB4 induced neutrophil chemotaxis in guinea pig(orally) at duration 24 h; assay type: functional; conditions: po
Homo sapiens [24] = species on record: Homo sapiens; test: Compound was tested in vitro for inhibitory activity in LTB4 induced neutrophil degranulation; assay type: functional
Cavia porcellus [25] = test: Compound was tested in vivo inhibitory activity against PMA induced ear edema in guinea pig (orally); assay type: functional; conditions: po
Cavia porcellus [26] = test: Compound was tested in vivo inhibitory activity against LTB4 induced neutropenia in guinea pig.(orally); assay type: functional; conditions: po
Cavia porcellus [27] = test: Compound was tested in vivo inhibitory activity against LTB4 induced neutrophil influx in guinea pig(orally); assay type: functional; conditions: po
Homo sapiens [28] = species on record: Homo sapiens; test: Compound was tested in vitro inhibitory activity against human neutrophil degranulation.; assay type: functional
Mus musculus [29] = test: Compound was tested in vivo inhibitory activity against LTB4 induced mouse peritonitis (orally); assay type: functional; conditions: po
Cavia porcellus [30] = test: Compound was tested in vivo inhibitory activity against AA induced ear edema; assay type: functional
Homo sapiens [31] = test: Shift in LTB-4 dose response curve for CD11b upregulation in normal volunteers; assay type: functional
Cavia porcellus [32] = test: Compound was tested in vivo inhibitory activity against LTB4 induced neutrophil cutaneous influx in guinea pig; assay type: functional
Cavia porcellus [33] = test: Compound was tested in vivo inhibitory activity to block 12 (R)-HETE skin inflammation (peroral administration) at 3 mg/kg; assay type: functional; conditions: route oral
Homo sapiens [34] = species on record: Homo sapiens; test: Compound was tested in vitro inhibitory activity against […] induced Ca mobilization.; assay type: functional, organism-based
Mus musculus [35] = test: Compound was tested in vivo inhibitory activity against LTB4 induced neutrophil cutaneous influx in mouse.; assay type: functional
Homo sapiens [36] = species on record: Homo sapiens; test: Compound was tested in vitro inhibitory activity against […] induced chemotaxis of human neutrophil; assay type: functional
[37] = target: T2, Cysteinyl leukotriene receptor 1 (Homo sapiens, UniProt Q9Y271); test: Compound were tested for inhibitory activity against Cysteinyl leukotriene D4 receptor
T2 sequence (Q9Y271 whole entry): T1 sequence (Q9Y271 whole entry)

Homo sapiens [38] = test: Fold shift in LTD4 dose response curve following 280 mg intravenous dose in asthmatic patients.; assay type: functional

Chain of Leukotriene B4 receptor 1 (Q15722 whole entry): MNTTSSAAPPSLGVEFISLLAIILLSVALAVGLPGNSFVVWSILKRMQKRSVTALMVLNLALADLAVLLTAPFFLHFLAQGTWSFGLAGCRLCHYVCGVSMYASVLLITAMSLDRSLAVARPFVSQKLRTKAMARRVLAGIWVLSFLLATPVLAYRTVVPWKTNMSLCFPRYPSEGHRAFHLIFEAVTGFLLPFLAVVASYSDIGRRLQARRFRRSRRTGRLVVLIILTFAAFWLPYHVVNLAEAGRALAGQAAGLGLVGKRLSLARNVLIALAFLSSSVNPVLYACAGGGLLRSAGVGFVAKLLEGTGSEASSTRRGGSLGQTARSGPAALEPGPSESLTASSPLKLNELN

Ki [2]: 60 nM
Compound: O=C(O)CCS[C@@H](CC(=O)O)c1ccccc1CCCCCCCCc1ccccc1
Activity (Homo sapiens [1]): Active

IC50 [5]: 5 nM
Compound: CC(C)c1ccc2c(c1)c(SC(C)(C)C)c(CC(C)(C)C(=O)O)n2Cc1ccc(Cl)cc1
ED50 (Rattus norvegicus [4]): 0.036 mg/kg | inhibition in vivo at 1 mg/kg (Monkey): 85% | ED50 (Rattus norvegicus [6]): 0.2 mg/kg

IC50 (Homo sapiens [7]): 1.2 nM
Compound: CCc1cc(-c2ccc(F)cc2)c(O)cc1OCCCOc1ccc2c(=O)c3cc(C(=O)O)ccc3oc2c1CCC(=O)O

IC50 (Homo sapiens [12]): 40 nM | half-life [13]: 2 h
Compound: CC(=O)N(O)C/C=C/c1cccc(Oc2ccccc2)c1
ED50 (Rattus norvegicus [10]): 54 mg/kg | ED50 (Cavia porcellus [11]): 10 mg/kg

IC50 (Rattus norvegicus [14]): 8100 nM | IC50 (Cavia porcellus [16]): 5700 nM | IC50 (Mus musculus [17]): 160 nM | IC50 (Phosphodiesterase 3): 15800 nM | IC50 (Homo sapiens [18]): 1200 nM | IC50 (Phosphodiesterase 4): 8900 nM | IC50 (RBL-2H3): 53 nM
Compound: C[C@H](C(=O)O)c1ccc2ccc(OCc3ccc4ccccc4n3)cc2c1.NC(CO)(CO)CO
ED50 (Cavia porcellus [15]): 7.3 mg/kg

Ki [2]: 26 nM
Compound: CCCc1c(OCCCC/C=C\C=C\[C@H](Sc2ccc3c(=O)cc(C(=O)[O-])oc3c2)[C@H](O)c2cccc(C(F)(F)F)c2)ccc(C(C)=O)c1O.[Na+]

IC50 (Homo sapiens [28]): 1600 nM
Compound: COc1ccc(/C=C/CCCCOc2cccc(OCCCCC(=O)O)c2CCC(=O)O)cc1
ED50 (Cavia porcellus [26]): 25.6 mg/kg | ED50 (Cavia porcellus [27]): 5.3 mg/kg

IC50 [37]: 3.1 nM
Compound: CN(C)C(=O)CCS[C@H](SCCC(=O)[O-])c1cccc(/C=C/c2ccc3ccc(Cl)cc3n2)c1.[Na+]
pKB (Cavia porcellus [3]): 8.8

Ki [2]: 0.2 nM
Compound: CN(C)C(=O)CCSC(SCCC(=O)[O-])c1cccc(/C=C/c2ccc3ccc(Cl)cc3n2)c1.[Na+] (stereo not drawn)
Activity (Homo sapiens [38]): >83

Second part, the compound before the results:

Compound: CCCCCCCCC/C=C\C=C\[C@@H](SCCC(=O)O)[C@@H](O)c1cccc(-c2nnn[nH]2)c1
Kb (Cavia porcellus [3]; read-out: pA2 (converted)): 5.01 nM

Compound: O=C(O)CC[C@@H](/C=C\Cc1ccc(OCCCCOc2ccccc2)cc1)Sc1ccc(C(=O)O)cc1
pKB (Cavia porcellus [8]): 8.4 | Activity (Homo sapiens [9]): 8

Compound: CCCc1c(OCCCOc2ccc(C(=O)NC)c(OC)c2CC2CC2)ccc2c1OC(CCC(=O)O)CC2 (stereo not drawn)
IC50 (Homo sapiens [19]): 29 nM | IC50 (Homo sapiens [20]): 38 nM | ED50 (Cavia porcellus [21]): 0.09 mg/kg | IC50 [22]: 1.5 nM

Compound: CCCc1c(OCCCOc2ccc(C(=O)NC)c(OC)c2CC2CC2)ccc2c1O[C@H](CCC(=O)O)CC2
ED50 (Cavia porcellus [23]): 0.07 mg/kg | IC50 (Homo sapiens [24]): 19 nM | ED50 (Cavia porcellus [25]): < 2.5 mg/kg | IC50 (Homo sapiens [20]): 32 nM | IC50 [22]: 1.3 nM

Compound: COc1ccc(CCCCCCCCOc2ccc(CSCc3cccc(C(=O)O)c3)nc2/C=C/C(=O)O)cc1
ED50 (Mus musculus [29]): 7.1 mg/kg | ED50 (Cavia porcellus [30]): 0.58 mg ear-1

Compound: O=C(O)C1(c2ccc3c(c2)OC[C@H](Cc2ccc(-c4ccccc4)cc2)[C@H]3O)CCCC1
Activity (Homo sapiens [31]): 10 | ED50 (Cavia porcellus [32]): 0.3 mg/kg | inhibition in vivo at 3 mg/kg (Cavia porcellus [33]): 75% | Kb (Homo sapiens [7]; read-out: pA2 (converted)): 10 nM | IC50 (Homo sapiens [34]): 940 nM | ED50 (Mus musculus [35]): 4.2 mg/kg | IC50 (Homo sapiens [36]): 5 nM
